Measured values as given in patent publication US8431614B2, “Loxoprofen derivative and pharmaceutical preparation containing the same” (LTT Bio-Pharma Co., Ltd., priority 2009, dated 2013).

Target: T1, COX-2 (Homo sapiens, UniProt P35354)
T1 construct: from tissue; host or cells: heparinised human whole blood from a healthy donor, stimulated with LPS
T1 sequence (P35354 18-604): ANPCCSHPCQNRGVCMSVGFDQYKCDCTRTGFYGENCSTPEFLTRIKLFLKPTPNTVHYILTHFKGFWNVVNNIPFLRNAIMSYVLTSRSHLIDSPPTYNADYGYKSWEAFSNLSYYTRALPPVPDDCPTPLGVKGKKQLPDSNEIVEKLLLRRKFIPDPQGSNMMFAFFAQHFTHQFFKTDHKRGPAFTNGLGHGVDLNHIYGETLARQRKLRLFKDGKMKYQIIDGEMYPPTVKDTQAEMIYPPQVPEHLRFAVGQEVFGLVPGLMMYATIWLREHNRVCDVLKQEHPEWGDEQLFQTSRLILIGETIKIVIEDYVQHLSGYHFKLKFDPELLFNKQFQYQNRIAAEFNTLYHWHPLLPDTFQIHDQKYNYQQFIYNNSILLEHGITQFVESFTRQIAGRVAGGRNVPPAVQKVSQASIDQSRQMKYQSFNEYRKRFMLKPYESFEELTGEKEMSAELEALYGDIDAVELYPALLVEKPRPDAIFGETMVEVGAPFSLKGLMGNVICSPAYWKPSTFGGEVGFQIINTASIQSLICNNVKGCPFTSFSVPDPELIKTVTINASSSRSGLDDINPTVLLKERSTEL
Test: Human whole blood assay, in vitro COX-2 assay (LPS-induced PGE2 by EIA)
Assay type: cell-based
Conditions: ratio of IC50 COX-1 to IC50 COX-2
Experimental: This test was performed according to the method described in Inflamm. Res., 45: 68-74 (1996).
A person who had not taken NSAIDs for at least one week and was healthy on the day of blood collection was selected as a subject for blood collection.
Blood was collected in heparin-treated test tubes (Venojectll blood collection tubes, Terumo Corporation), and an inflammatory stimulant, lipopolysaccharide (LPS) (Sigma-Aldrich Japan Inc., #L2880 from E. coli055:B5: diluted in phosphate buffered saline (PBS) to a final concentration of 100 μg/mL) was added to the blood. The mixture was dispensed in 500 μL aliquots into tubes. 2 μL of the test compound (final concentration: 0.1 μM to 1000 μM) dissolved in an appropriate solvent (DMSO or MilliQ water) was added and incubated at 37° C. for 24 hours to induce COX-2.
After incubation, the samples were centrifuged at 12,000×g for 5 minutes to separate serum. 100 μL of the obtained serum was added to 400 μL of ethanol to remove blood protein, and the mixture was centrifuged again at 12,000×g for 5 minutes. PGE2 in the supernatant was quantified by using an enzyme immunoassay (EIA) kit [Cayman (Ann, Arbor, Mich., USA) #514040]. The protocol followed the protocol attached to the kit.

For `CC(C(=O)O)c1ccc(CC2CCCC2=O)cc1` (stereo not shown) [LOXONIN, loxoprofen], the “COX-2 S[…]. 1/COX. 2” value was 4.0.
